Test results: patent US10308938B2, “Compositions and methods to activate or inhibit toll-like receptor signaling” (priority 2014, dated 2019)
Entries after “also recorded” stand apart in the source; their conditions may differ.

Experiments:
Type in all cases: cell-based, human
memory T cells = experiment: IMQ pretreatment, washout, rest and restimulation with anti-CD3 and anti-CD28; conditions: IMQ 2 hours, 12 hours rest, anti-CD3 and anti-CD28
Description: (§1) Enzyme-linked immunosorbent assay.
To determine if pretreatment of CD4^+ T cells with IMQ would be sufficient to diminish their subsequent cytokine secretion and proliferative response to a full stimulation, memory T cells were pre-treated with IMQ for 2 hours and rested for 12 hours after washout to remove traces of IMQ and then stimulated with anti-CD3 and anti-CD28 for 3 days.

CD4^+ T cells [1] = experiment: Expression of activation markers on stimulated CD4+ T cells; conditions: 48 hours after activation
Description: (§2) Cell activation and intracellular staining.

CD4^+ T cells [2] = experiment: Anergy-related gene expression, TaqMan real-time PCR
Description: (§3) Quantification of mRNA expression levels by RT-PCR. RNA was isolated using QIAGEN RNeasy Micro Plus Kit (QIAGEN, Valencia, Calif.), following manufacturer's guidelines and converted to cDNA by reverse transcription (RT) with random hexamers and Multiscribe RT (TQMN, Reverse Transcription Reagents; Applied Biosystems, Foster City, Calif.). For mRNA gene expression assays, probes were purchased from Applied Biosystems (Table 2) and the reactions were set up following manufacturer's guidelines and run on a StepOne Real-Time PCR System (Applied Biosystems). Values are represented as the difference in Ct values normalized to β2-microglobulin for each sample as per the following formula: Relative RNA expression=(2^−dCt)×1000.
To examine whether TLR7 stimulation and subsequent NFAT dephosphorylation induces the expression of anergy-related genes, CD4^+ T cells were incubated for 2-16 hours with IMQ in the presence or absence of the TLR7 inhibitory sequence IRS661 and RNA was isolated to examine the hypothesis that TLR7 engagement induced expression of anergy-related genes previously described. As a control for anergy-related gene expression, CD4^+ T cells were incubated with either ionomycin and PMA or ionomycin alone. […] The effect observed in the regulation of these genes was TLR7-specific, as preincubation of CD4^+ T cells with IRS661 before IMQ treatment abrogated the increase in anergy-related gene expression.

CD4^+ T cells [3] = experiment: shRNA-transduced CD4+ T cells stimulated in the presence or absence of IMQ
Description: as §1, §3
Gene silencing by lentiviral transduction. Lentiviral particles encoding shRNAs were obtained from Sigma-Aldrich (NFAT1 clone TRCN0000016144, TLR7 clones 3 and 4 TRCN0000056973 and TRCN0000056974, respectively). 5×10^4 CD4^+ T cells per well were stimulated with plate-bound anti-CD3 (1 μg/ml) and soluble anti-CD28 (1 μg/ml) for 12 h before transduction. Cells were then transduced with viral particles containing a vector expressing the indicated specific shRNA (NFAT1 or TLR7) or a non-target shRNA as a control at a multiplicity of infection of 4. All constructions contained the coding sequence for GFP. After 5 days in culture, transduced cells were sorted based on GFP expression and the efficiency of gene silencing was determined by TaqMan real-time PCR and protein staining.

CD4^+ T cells [4] = experiment: Cytokine secretion by stimulated CD4+ T cells, ELISA; conditions: day 3 after stimulation
Description: as §2, §1

CD4^+ T cells [5] = experiment: Proliferation of CFSE-labeled CD4+ T cells stimulated with anti-CD3 and anti-CD28 in the presence of TLR ligands; conditions: compared to control
Description: (§4) Cell isolation and FACS sorting of T cell populations. Peripheral blood mononuclear cells (PBMC) were isolated from healthy donors by Ficoll Hypaque gradient centrifugation. Total CD4^+ T cells were isolated by negative selection using CD4^+ T cell isolation kit (StemCell Technologies, Vancouver, BC) and stained for fluorescence-activated cell sorting (FACS) with the following antibodies: anti-CD45RO (clone UCHL1), CD45RA (clone H1100), CD25 (clone M-A251) (all from BD Biosciences) and CD127 (clone eBioRDR5) from eBioscience (San Diego, Calif.). The Treg (CD4^+CD25^hiCD127^low/neg) memory T cell (CD4^+CD45RA^−CD45RO^+CD25^low/neg+) and naïve T cell (CD4^+CD45RA^+CD45RO^−CD25^low/neg) populations were sorted on a FACS Aria (BD Biosciences). Unless specified, CD4^+ T cells used in the experiments were Treg-depleted CD4^+ T cells and they were sorted as CD4^+CD25^pos/lowCD127^+. The purity of the sorted CD4^+ T cell population was >98% as assessed by CD3 and CD4 staining after sort. CD14^+ cells were isolated by positive selection using EasySep™ Human CD14 Positive Selection Kit (StemCell Technologies).
as §2
While examining the costimulatory role of TLR on CD4^+ T cells, it was unexpectedly discovered that entry of CD4^+ cells into cell cycle with T cell receptor cross-linking and anti-CD28 was blocked by TLR7 engagement. Specifically, CD4^+ T cells were stimulated with anti-CD3 and anti-CD28 in the presence of different TLR agonists followed by analysis of proliferation and cytokine secretion.

CD4^+ T cells [6] = experiment: Intracellular calcium measurement (INDO-1AM)
Description: Intracellular calcium measurements. Ex vivo isolated CD4^+ T cells were labeled with 5 μM INDO-1AM for one hour at 37° C. in PBS, 1 mM Ca^2+. Cells were washed to remove traces of INDO-1AM, resuspended in buffer at 10^6 cells/ml and incubated for 30 minutes at 37° C. before analysis. When necessary, IRS661 was added at the indicated concentration during the 30 minute incubation. For acquisition, the sample was acquired for approximately 3 minutes to obtain basal levels of calcium and subsequently IMQ or other reagents were added at the indicated concentrations. Samples were acquired for a minimum of 10 minutes on a BD Fortessa instrument and analysed with FlowJo software.

CD14^+ monocytes = experiment: Activation of CD14+ monocytes (surface staining, cytokine ELISA)
Description: as §4, §2, §1

[7] = NFAT shRNA-transduced cells, 3 days
[8] = TLR7 shRNA-transduced cells, 3 days
[9] = non-target shRNA-transduced cells, 3 days, listed as IMQ

## CC(C)Cn1cnc2c(N)nc3ccccc3c21 [Imiquimod]
Memory T cells
  IFNγ production after restimulation: significantly decreased
  IL-2 production after restimulation: significantly decreased
CD4^+ T cells [1]
  expression of activation marker CD25: inhibited
CD4^+ T cells [1]; listed as IMQ
  expression of activation marker CD69: inhibited; also recorded: decrease
  expression of activation marker CD137: inhibited; also recorded: decrease
CD4^+ T cells [2]; IMQ treatment, 2 hours
  expression of Sirt1, Itch, Cblb, Dgka, Egr2 and Egr3: all of them but Egr2 showed a significant upregulation
CD4^+ T cells [2]; NFAT1-deficient cells vs non-target transduced, IMQ 2 hours
  expression of anergy-related genes: failed to upregulate
CD4^+ T cells [2]; compared to control and PMA and ionomycin
  expression of 12 anergy-related genes: Ten of the 12 anergy-related genes examined were significantly upregulated
CD4^+ T cells [3]; 24 hours after stimulation
  NFAT1 gene expression: did not have an effect
CD4^+ T cells [3]; [7]
  IFNγ production: not affected
  IL-2 production: not affected
CD4^+ T cells [3]; [8]
  IMQ-induced decrease of IFNγ secretion: abolished
  IMQ-induced decrease of IL-2 secretion: abolished
CD4^+ T cells [3]; [9]
  IFNγ secretion: decrease; also recorded: significantly reduced
  IL-2 secretion: decrease; also recorded: significantly reduced
CD4^+ T cells [4]
  IFNγ secretion: dramatically reduced
  IL-2 secretion: decrease
  IL-4 secretion: decrease
  IL-17 secretion: dramatically reduced
CD4^+ T cells [4]; listed as IMQ
  IFNγ secretion: decrease
  IL-17 secretion: decrease
CD4^+ T cells [5]
  proliferation of CD4+ T cells (frequency of proliferating cells): dramatically reduced
CD4^+ T cells [6]
  duration of the increase in intracellular calcium concentration: at least 20 minutes
CD4^+ T cells [6]; INDO-1AM ratio over time
  intracellular calcium concentration: significant and sustained (maintained for at least 20 minutes, FIGS. 23A and 23B) increase
CD14^+ monocytes; 5 μg/ml IMQ, 24 hours
  CD25 protein expression: upregulation
  CD80 protein expression: upregulation
  CD86 protein expression: downregulation
  HLA-DR protein expression: upregulation
CD14^+ monocytes; ELISA
  IL-6 secretion: secreted significant levels
  IL-10 secretion: decreased
  IL-113 secretion: secreted significant levels
  TNFα secretion: secreted significant levels
